Data published in publication PMC2677997 (Bioorganic & medicinal chemistry, 2009).

Biological target: BoNT/A LC (BoNTA-LC 1-425) (Clostridium botulinum, UniProt P0DPI0)
Assay type: biochemical

Sequence of BoNT/A LC (BoNTA-LC 1-425) (P0DPI0 1-425 limits assumed): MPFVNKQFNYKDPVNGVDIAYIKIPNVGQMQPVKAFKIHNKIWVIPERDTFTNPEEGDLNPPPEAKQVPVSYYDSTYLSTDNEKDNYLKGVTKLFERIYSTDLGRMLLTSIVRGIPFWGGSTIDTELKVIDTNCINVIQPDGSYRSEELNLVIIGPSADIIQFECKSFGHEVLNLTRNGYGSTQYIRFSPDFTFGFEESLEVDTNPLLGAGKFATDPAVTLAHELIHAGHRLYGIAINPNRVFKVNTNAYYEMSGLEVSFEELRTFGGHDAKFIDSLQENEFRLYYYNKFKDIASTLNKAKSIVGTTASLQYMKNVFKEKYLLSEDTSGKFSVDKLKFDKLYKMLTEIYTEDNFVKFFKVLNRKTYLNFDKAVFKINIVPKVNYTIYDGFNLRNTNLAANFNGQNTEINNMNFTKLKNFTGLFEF

O=C(CO)Nc1cc(-c2ccc(Cl)cc2)n[nH]1 [Compound 6, N-(3-(4-Chlorophenyl)-1H-pyrazol-5-yl)-2-hydroxyacetamide] was tested, and the “inhibitory activity” value was “abolishes all activity”.
For CC(=O)Nc1cc(-c2ccc(Cl)cc2)n[nH]1 [Compound 7, N-(3-(4-Chlorophenyl)-1H-pyrazol-5-yl)acetamide], the “inhibitory activity” value was “abolishes all activity”.
